Test results published in patent publication US8269013B2, “Substituted pyrazole inhibitors of c-Met protein kinase” (Vertex Pharmaceuticals Incorporated, priority 2009, dated 2012).

Assays:
[1] = system: c-Met in Snu5-AP1-Luc-Pest cells; assay: Inhibition of c-Met activity in Snu5 gastric carcinoma cells (Snu5-AP1-Luc-Pest luciferase reporter); type: cell-based, human; settings: Steady-Glo luminescence, 4-parameter fit
Description: Compounds of formula I were also screened for their ability to inhibit the Luciferase-induced signal in an engineered Snu5 cell line. […] The constitutively active c-Met activates cellular pathways (principally MAP kinase), resulting in AP-1-induced transcription of luciferase-PEST and translation into the final product, the activity of which is quantifiable as a chemiluminescent readout upon the addition of luciferin (Steady-Glo from Promega.). Residual luminescence is strongly correlated to the inhibition of c-Met. A stable cell line was obtained by selecting the new cell line (Snu5-AP1-Luc-Pest) with puromycin. The cells were grown in complete media [Iscove's media (Invitrogen) containing 10% fetal bovine serum (FBS, Hyclone) and penicillin/gentamycin (Invitrogen)]. Compounds of the invention were dissolved in DMSO to make 10 mM initial stock solutions. Serial dilutions in DMSO were then made and transferred to complete medium to make a 10× solution. The Snu5-AP1-Luc-Pest cells were counted and diluted to 200,000-cells/mL solution. The cells (90 μL) were added to each well in a 96-well black with clear bottom plate (Costar). Then 10 μL of the 10× compound solution was added to the cells in triplicate. The plates were incubated in a 37° C./5% CO2 incubator. After 6 hours, 50 μL of the Steady-Glo reagent (Promega) was added to each well and placed on a plate shaker for 5 minutes to ensure that the cells were completely lysed.

[2] = molecular target: c-Met (Homo sapiens, UniProt P08581); assay: c-Met kinase inhibition assay (radiometric, 33P-ATP, polyE4Y); type: biochemical; settings: 0.5 nM c-Met, 35 μM ATP, 0.5 mg/mL polyE4Y, 20 min; competitive tight-binding fit
Sequence of c-Met (P08581 25-1390): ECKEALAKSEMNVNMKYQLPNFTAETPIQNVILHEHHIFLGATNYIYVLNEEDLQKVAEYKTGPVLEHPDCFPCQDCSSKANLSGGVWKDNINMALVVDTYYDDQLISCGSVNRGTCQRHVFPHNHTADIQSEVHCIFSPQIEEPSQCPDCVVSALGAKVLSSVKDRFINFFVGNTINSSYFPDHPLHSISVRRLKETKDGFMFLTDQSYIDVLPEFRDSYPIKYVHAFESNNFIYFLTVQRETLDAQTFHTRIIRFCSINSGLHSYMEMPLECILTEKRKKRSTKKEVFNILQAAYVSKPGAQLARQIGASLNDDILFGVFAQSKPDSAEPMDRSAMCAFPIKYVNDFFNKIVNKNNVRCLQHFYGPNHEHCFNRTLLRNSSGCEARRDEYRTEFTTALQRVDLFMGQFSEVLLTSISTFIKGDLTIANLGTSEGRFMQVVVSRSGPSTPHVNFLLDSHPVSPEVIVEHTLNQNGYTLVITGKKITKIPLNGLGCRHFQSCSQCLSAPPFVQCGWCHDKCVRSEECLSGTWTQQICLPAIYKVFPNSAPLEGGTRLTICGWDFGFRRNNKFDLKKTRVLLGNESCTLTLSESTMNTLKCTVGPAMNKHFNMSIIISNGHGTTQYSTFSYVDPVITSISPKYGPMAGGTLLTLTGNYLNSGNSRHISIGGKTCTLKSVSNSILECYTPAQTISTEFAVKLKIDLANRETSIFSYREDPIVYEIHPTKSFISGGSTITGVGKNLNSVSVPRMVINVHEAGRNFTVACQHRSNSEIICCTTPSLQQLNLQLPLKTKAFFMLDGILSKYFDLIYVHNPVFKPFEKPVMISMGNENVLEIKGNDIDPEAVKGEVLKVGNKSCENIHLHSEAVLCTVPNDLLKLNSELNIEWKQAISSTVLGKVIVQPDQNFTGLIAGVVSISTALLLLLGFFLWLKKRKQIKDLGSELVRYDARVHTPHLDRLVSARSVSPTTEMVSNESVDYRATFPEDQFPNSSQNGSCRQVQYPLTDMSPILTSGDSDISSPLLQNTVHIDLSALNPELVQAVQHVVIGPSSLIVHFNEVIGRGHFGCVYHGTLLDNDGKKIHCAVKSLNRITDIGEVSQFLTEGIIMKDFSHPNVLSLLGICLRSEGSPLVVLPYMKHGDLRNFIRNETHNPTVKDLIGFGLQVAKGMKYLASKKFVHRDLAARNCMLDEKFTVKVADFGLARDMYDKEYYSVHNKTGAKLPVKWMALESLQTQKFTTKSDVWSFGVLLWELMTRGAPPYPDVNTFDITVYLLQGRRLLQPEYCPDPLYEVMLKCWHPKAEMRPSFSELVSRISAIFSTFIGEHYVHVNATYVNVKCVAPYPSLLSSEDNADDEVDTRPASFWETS
Method: The compounds of the invention were screened for their ability to inhibit c-Met kinase using a standard radiometric assay. Briefly, in this kinase assay the transfer of the terminal ^33P-phosphate in ^33P-ATP to substrate polyE4Y is interrogated. […] Accordingly, compounds of the invention were dissolved in DMSO to make 10 mM initial stock solutions. Serial dilutions in DMSO were then made to obtain the final solutions for the assay. A 1.5 μL aliquot of DMSO or inhibitor in DMSO was added to each well, followed by the addition of ^33P-ATP, and finally the addition of c-Met and polyE4Y (obtained from Sigma). After 20 min, the reaction was quenched with 50 μL of 30% trichloroacetic acid (TCA) containing 4 mM ATP. The reaction mixture was transferred to the 0.66 mm GF filter plates (Corning) and washed three times with 5% TCA. Following the addition of 50 μL of Ultimate Gold™ high efficiency scintillant (Packard Bioscience), the samples were counted in a Packard TopCount NXT Microplate Scintillation and Luminescence Counter (Packard BioScience). The Ki values, shown in Table 2, were calculated using Microsoft Excel Solver macros to fit the data to the kinetic model for competitive tight-binding inhibition.

| IC50 ([1]; Homo sapiens, SNU-5, 6 hours) [nM] | Ki [2] [nM] | IC50 ([1]; 6 hours) [nM] | SMILES |
| --- | --- | --- | --- |
| 4 | 14 | – | Cc1nn(C)cc1-c1nn2c(C(F)(F)c3ccc4ncccc4c3)nnc2s1 [Compound 20] |
| 2.5 | 2 | – | Cn1cc(-c2nn3c(Cc4c(F)cc5ncccc5c4F)nnc3s2)c(C(F)(F)F)n1 [Compound 17] |
| 3 | 15 | – | Cc1nn(C)cc1-c1nn2c([C@@H](C)c3ccc4ncccc4c3)nnc2s1 [Compound 9] |
| 3 | 2.4 | – | CC(C)c1nn(C)cc1-c1nn2c(Cc3c(F)cc4ncccc4c3F)nnc2s1 [Compound 16] |
| 6 | 4 | – | CC(C)c1nn(C)cc1-c1nn2c(C(F)(F)c3ccc4ncccc4c3)nnc2s1 [Compound 21] |
| – | – | 2 | Cn1cc(-c2nn3c(Cc4ccc5ncccc5c4)nnc3s2)c(C(F)(F)F)n1 [Compound 3] |
| > 1000 | 3400 | – | Cn1cc(-c2nn3c(C(C)(C)c4ccc5ncccc5c4)nnc3s2)cn1 [reference compound] |
| 2 | 7 | – | Cc1nn(C)cc1-c1nn2c(Cc3c(F)cc4ncccc4c3F)nnc2s1 [Compound 14] |
| 14 | 36 | – | Cn1cc(-c2nn3c(C(F)(F)c4ccc5ncccc5c4)nnc3s2)cn1 [reference compound] |
| 2.5 | 24 | – | Cc1nn(C)cc1-c1nn2c([C@H](C)c3ccc4ncccc4c3)nnc2s1 [Compound 5] |
| 6.2 | 5 | – | CCc1nn(C)cc1-c1nn2c([C@@H](C)c3ccc4ncccc4c3)nnc2s1 [Compound 10] |
| 250 | 360 | – | Cc1nn(C)cc1-c1nn2c(C(C)(C)c3ccc4ncccc4c3)nnc2s1 [Compound 13] |
| 2 | 2.5 | – | CCc1nn(C)cc1-c1nn2c(Cc3c(F)cc4ncccc4c3F)nnc2s1 [Compound 15] |
| 90 | 243 | – | C[C@H](c1ccc2ncccc2c1)c1nnc2sc(-c3cnn(C)c3)nn12 [reference compound] |
| 5 | 22 | – | Cc1nn(C)cc1-c1nn2c([C@H](C)c3c(F)cc4ncccc4c3F)nnc2s1 [Compound 19] |
| 15 | 24 | – | C[C@@H](c1ccc2ncccc2c1)c1nnc2sc(-c3cnn(C)c3)nn12 [reference compound] |
| – | – | 3 | CC(C)c1nn(C)cc1-c1nn2c(Cc3ccc4ncccc4c3)nnc2s1 [Compound 4] |
| 60 | 70 | – | C[C@H](c1c(F)cc2ncccc2c1F)c1nnc2sc(-c3cnn(C)c3)nn12 [reference compound] |
| 7 | 7 | – | C[C@@H](c1ccc2ncccc2c1)c1nnc2sc(-c3cn(C)nc3C3CC3)nn12 [Compound 12] |
| 2 | 7 | – | C[C@H](c1ccc2ncccc2c1)c1nnc2sc(-c3cn(C)nc3C(F)(F)F)nn12 [Compound 6] |
| 6 | 10 | – | CCc1nn(C)cc1-c1nn2c([C@H](C)c3ccc4ncccc4c3)nnc2s1 [Compound 7] |
| 0.5 | 2 | – | Cc1nn(C)cc1-c1nn2c([C@@H](C)c3c(F)cc4ncccc4c3F)nnc2s1 [Compound 18] |
| – | – | 2 | Cc1nn(C)cc1-c1nn2c(Cc3ccc4ncccc4c3)nnc2s1 [Compound 1] |
| 2 | 3 | – | C[C@@H](c1ccc2ncccc2c1)c1nnc2sc(-c3cn(C)nc3C(F)(F)F)nn12 [Compound 11] |
| – | – | 4 | CCc1nn(C)cc1-c1nn2c(Cc3ccc4ncccc4c3)nnc2s1 [Compound 2] |
| 6 | 5 | – | C[C@@H](c1c(F)cc2ncccc2c1F)c1nnc2sc(-c3cnn(C)c3)nn12 [reference compound] |
| 3 | 24 | – | C[C@H](c1ccc2ncccc2c1)c1nnc2sc(-c3cn(C)nc3C3CC3)nn12 [Compound 8] |
| 12 | 16 | – | Cn1cc(-c2nn3c(Cc4c(F)cc5ncccc5c4F)nnc3s2)cn1 [reference compound] |

| SMILES | IC50 ([1]; Homo sapiens, SNU-5, 6 hours) [nM] | Ki [2] [nM] | IC50 ([1]; 6 hours) [nM] |
| --- | --- | --- | --- |
| Cn1cc(-c2nn3c(Cc4ccc5ncccc5c4)nnc3s2)cn1 [reference compound] | 85 | – | – |
